The target in test [1] is DNA gyrase (Micrococcus luteus). The experiment in a line: Antibacterial activity against Micrococcus luteus DNA gyrase.
Test [2] addresses DNA topoisomerase I (Escherichia coli). The experiment in a line: Antibacterial activity against Escherichia coli DNA topoisomerase I.
For test [3], the target named is DNA gyrase (Escherichia coli). Nature of the test: Antibacterial activity against Escherichia coli DNA gyrase.

From BindingDB's records for doi:10.1021/jm0010623 (Bayer, 2001) come the findings set out here.

Regarding `COC(=O)c1c(Br)c(OC)cc(O)c1CSC[C@@H](Nc1nc(-c2ccc([N+](=O)[O-])cc2)cs1)C1=NOCCO1`, it took 62500 nM to reach half-maximal inhibition in test [1] (IC50).
Consider `COC(=O)c1c(Br)c(OC)cc(O)c1CSC[C@H](Nc1nc(-c2ccc([N+](=O)[O-])cc2)cs1)C(=O)OC` [BAY-507950], for which the IC50 (as a rule, the concentration needed to halve the response being measured) in test [1] stood at 326 nM; in test [2], 195000 nM; in test [3], 489 nM.
For `COC(=O)c1c(Br)c(OC)cc(O)c1CSC[C@H](Nc1nc(-c2ccc([N+](=O)[O-])cc2)cs1)C1=NOCCO1` [BAY-507952], the half-maximal inhibitory concentration (IC50) in test [1] amounted to 625 nM; in test [2], 187000 nM; in test [3], 781 nM.
In the case of `COC(=O)c1c(Br)c(OC)cc(O)c1CSC[C@H](Nc1nc(-c2ccc([N+](=O)[O-])cc2)cs1)c1nc(C)no1` [Ro-616653], the half-inhibitory concentration (IC50) came out at 157 nM in test [1], 188000 nM in test [2] and 157 nM in test [3].
